Source: patent US11453671B2, “Pyrazolopyrimidine inhibitors of JAK kinases and uses thereof” (Genentech, Inc., priority 2020, dated 2022)
pIC50, pKi: −log10 of the molar value. Where two headings read alike, the source gives them in different places.

Assays:
[1] = biological target: T1, recombinant human JAK1 kinase domain protein (Residues 854-1154) (Homo sapiens, UniProt P23458); test: JAK1 biochemical assay (microfluidic mobility shift, peptide phosphorylation); conditions: 25 μM ATP, 1 nM total JAK1; read-out: Enzyme JAK1 Ki
T1 construct: human JAK1 kinase domain protein (Residues 854-1154); purchased Proteros Biostructures GmbH (Martinsried, Germany); host or cells: insect cells
T1 sequence (P23458 854-1154): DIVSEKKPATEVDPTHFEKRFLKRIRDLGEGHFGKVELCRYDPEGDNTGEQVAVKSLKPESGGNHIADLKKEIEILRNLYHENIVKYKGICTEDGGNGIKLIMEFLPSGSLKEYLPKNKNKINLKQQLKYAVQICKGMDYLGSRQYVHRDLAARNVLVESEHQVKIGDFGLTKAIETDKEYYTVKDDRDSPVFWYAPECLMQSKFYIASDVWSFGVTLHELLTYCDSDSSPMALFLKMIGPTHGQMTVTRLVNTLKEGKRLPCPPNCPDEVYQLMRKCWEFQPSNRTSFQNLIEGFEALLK
Description: JAK1 and JAK2 Biochemical Assays

[2] = test system: JAK1: IL-13-stimulated STAT6 phosphorylation in BEAS-2B cells; test: P-STAT6 BEAS-2B+IL-13 Cell Assay; type: cell-based, human; conditions: IL-13 stimulation, read-out: Cellular JAK1 PSTAT6 BEAS2B + IL13 IC50
Method in brief: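 BEAS-2B cells in BEGM preincubated 1 h at 37 °C with 10-point, 1:2 compound dilutions, then stimulated 15 min with IL-13 (250 ng/mL stock). Lysate pSTAT6 (Tyr641) captured on total-STAT6 antibody and read by MSD electrochemiluminescence; IC50 from four-parameter logistic fit.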

[3] = test system: JAK1 pathway: P-STAT6 in TF-1 human erythroleukemia cells + IL-13; test: P-STAT6 TF-1+Interleukin-13 (IL-13) assay; type: cell-based; conditions: Homo sapiens, TF-1, TF-1 cells, IL-13 stimulation; read-out: Cellular JAK1 PSTAT6 TF-1 + IL13 IC50
Protocol: (§1) TF-1 human erythroleukemia cells (ATCC®; Manassas, Va.; Catalog No. CRL-2003™) were grown in Roswell Park Memorial Institute (RPMI) medium supplemented with 10% heat-inactivated fetal bovine serum (FBS), 2 ng/mL granulocyte-macrophage colony-stimulating factor, 1×non-essential amino acids (NEAA), and 1 mM sodium pyruvate. The day before the assay, the cultures were transferred to Opti-MEM™, 1×NEAA, 1 mM sodium pyruvate, and 0.5% charcoal-stripped FBS (starve medium). Inhibitor stock solutions (5 mM in DMSO) were serially diluted 1:2 in DMSO to generate a 10-point concentration titration (at 500×test concentration), which was further diluted by a 50-fold dilution in Assay Medium (RPMI containing 1×NEAA and 1 mM sodium pyruvate) to generate a 10×concentration titration (in 2% DMSO). The cells (300,000 cells/well in 35 μL of Assay Medium) were seeded in 384-well Greiner plates. Diluted inhibitor at 10×concentration (5 μL) was added to the cells and the plates were incubated for 30 minutes at 37° C. in a humidified incubator. Cells were stimulated with the human recombinant cytokine at the respective EC90 concentrations, as previously determined for each individual lot. For the phosphorylated signal transducer and activator of transcription 6 (P-STAT6) TF-1+Interleukin-13 (IL-13) assay, 10 μL of 250 ng/mL IL-13 (R&D Systems; Minneapolis, Minn.) was added to the cells, which were then incubated for 10 minutes at 37° C. For the P-STAT5 TF-1+Erythropoietin (EPO) assay, 10 μL of 110 IU/mL EPO (Gibco Life Technologies, Catalog No. PHC2054) was added to the cells, which were then incubated for 30 min at 37° C. For both assays, the incubation was followed by addition to the cells of 5 μL of ice-cold 10× cell lysis buffer (Cell Signaling Technologies; Danvers, Mass.; Catalog No. 9803S) containing 1 mM phenylmethylsulfonyl fluoride (PMSF). Assay plates were frozen at −80° C. for a minimum of 1 horn. In the IL-13 assay, P-STAT6 was measured by coating goat anti-rabbit (GAR) plates (Meso Scale Discovery [MSD]; Rockville, Md.; Catalog No. MSD L21RA-1) with rabbit anti-human total STAT6 antibody (Cell Signaling Technologies; Catalog No. 9362S), incubating the cell lysates in the coated plates overnight at 4° C., and then detecting with mouse anti-P-STAT6 (Tyr641) Clone 16E12 antibody (MilliporeSigma; Burlington, Mass.; Catalog No. 05-590, custom labeled by MSD with SULFO-tag) using standard MSD plate processing, washing, and detection protocols. In the EPO assay, P-STAT5 was detected using the phospho-STAT5a,b Whole Cell Lysate Kit (MSD; Catalog No. K150IGD-1). The electrochemiluminescence (ECL) signal of wells was read on the MESO SECTOR S600 (MSD) reader.

[4] = test system: JAK2 pathway: P-STAT5 in TF-1 human erythroleukemia cells + EPO; test: P-STAT5 TF-1+Erythropoietin (EPO) assay; type: cell-based; conditions: EPO stimulation, read-out: Cellular JAK2 PSTAT5 TF-l + EPO IC50
Protocol: as §1

[5] = biological target: Recombinant human JAK2 kinase domain protein (Residues 812-1132) (Homo sapiens, UniProt O60674); test: JAK2 biochemical assay (microfluidic mobility shift, peptide phosphorylation); conditions: Enzyme JAK2 Ki (nM), 25 μM ATP, 0.2 nM total JAK2
Sequence of Recombinant human JAK2 kinase domain protein (Residues 812-1132) (O60674 812-1132): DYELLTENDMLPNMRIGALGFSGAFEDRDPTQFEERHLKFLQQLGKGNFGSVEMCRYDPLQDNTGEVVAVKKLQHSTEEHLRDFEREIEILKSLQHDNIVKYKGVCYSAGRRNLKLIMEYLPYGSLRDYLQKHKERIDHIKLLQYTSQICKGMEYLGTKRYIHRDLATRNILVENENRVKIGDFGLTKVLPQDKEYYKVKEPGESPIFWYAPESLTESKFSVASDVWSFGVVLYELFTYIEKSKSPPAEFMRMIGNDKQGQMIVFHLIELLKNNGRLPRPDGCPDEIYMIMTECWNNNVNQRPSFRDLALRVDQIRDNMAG

[6] = Mouse lung tissue binding (equilibrium dialysis, RED); type: in vitro ADME; conditions: for Mouse LTB %: mouse lung tissue binding, % bound (Table 3); for Lung tissue binding, %: Table 5, sulfone-sulfide analog pairs
Protocol: Mouse lung tissue binding. A high bound fraction or percentage of JAK1/JAK2 inhibitors to lung tissue may be undesirable since it can reduce the amount of free drug available to inhibit JAK1 or JAK2.
(a) Tissue binding experiments were performed in triplicate (n=3) using a Single-Use RED Plate by following the standard protocol. Initially, individual drugs were spiked to tissue homogenates (pH 7.4) to achieve a final concentration of 1 μM, and then 300 μL of drug-tissue homogenate mixtures were transferred to the donor wells of the RED plate which was pre-loaded with 500 μL phosphate buffer saline (133 mM) on the receiver wells. The RED plate was sealed with a gas permeable membrane and placed in a shaking incubator (450 rpm, VWR Symphony™) for 6 hr at 37° C. with 5% CO2. At the end of incubation, aliquots of 30 μL samples were taken out of the RED device and matrix equalized with an equal volume of tissue homogenates or buffer, and resulting samples were then immediately quenched with ice cold acetonitrile (sample:acetonitrile 1:4) containing either propranolol or labetalol as an internal standard. After shaking for 15 min at 500 rpm on a Thermo Scientific Compact Digital MicroPlate Shaker, all samples were then subjected to centrifugation at 3700 rpm for 15 min (Beckman Coulter Allegra X 12R) to remove plasma protein. Subsequently, supernatants were collected and then diluted with an equal volume of water prior to LC-MS/MS analysis.
(b) In an alternate procedure, the extent of lung tissue binding of test compound to mouse lung homogenate may also be determined by equilibrium dialysis using Pierce RED (rapid equilibrium dialysis) devices (Fisher Scientific 89811 & 89809). A 10 mM solution of compound in DMSO was prepared and diluted to 1 mM with DMSO. An aliquot of this 1 mM (4 μL) was added into lung homogenate (dilution factor of 1:9, lung tissue:potassium phosphate buffer (0.05 M, pH 7.4)) to give a final compound incubation concentration of 5 μM with solvent accounting for 0.5% (v/v) of the final incubation volume.
For each assay, the percentage lung tissue bound was determined in triplicate. Lung homogenate (200 μL) was loaded into one side of a RED device insert, in triplicate, and 350 μL of potassium phosphate buffer was loaded into the other side. The RED devices were sealed and incubated for 4 hours at ca. 37° C. on an orbital shaker (˜150 rpm).
Following incubation, an aliquot of lung homogenate (8 μL) and an aliquot of dialysate (72 μL) were matrix matched (lung homogenate with 72 μL phosphate buffer, dialysate with 8 μL lung homogenate) ahead of analysis. Protein was precipitated from the samples with the addition of 160 μL of acetonitrile containing internal standard. The same matrix matching and protein precipitation procedure was performed on lung homogenate aliquots sampled at the start of the experiment (t=0 min samples), for the assessment of the mass balance. The quenched samples were centrifuged (4000 rpm, 30 min, 4° C.) and the resultant supernatant diluted with water (3:1 (v/v), supernatant: water) and the samples analysed for parent compound by liquid chromatography mass spectrometry assay.
The unbound fraction (fu) in lung homogenate was determined from the ratio of the dialysate to homogenate peak area, corrected to take into account the lung homogenate dilution (D) to enable an estimate of whole lung tissue binding using the following equations: Undiluted fu=(1/D)/[((1/Apparent fu)−1)+(1/D)] Corrected fraction bound (%)=(1-undiluted fu)*100

| Structure (SMILES) | pKi [1] | pIC50 ([2]; Homo sapiens, BEAS-2B) | pIC50 [3] | pIC50 ([4]; Homo sapiens, TF-1, TF-1 cells) | Ki [5] [nM] | pIC50 ([4]; TF-1 cells) | pIC50 [2] | Mouse LTB % [6] [%] | Lung tissue binding, % [6] [%] |
| --- | --- | --- | --- | --- | --- | --- | --- | --- | --- |
| CN1CCC[C@@H]1Cn1cc(NC(=O)c2cnn3cccnc23)c(-c2cc(S(=O)(=O)C3CC3)ccc2OC(F)F)n1 (racemic) [Example 60, N-[3-[5-cyclopropylsulfonyl-2-(difluoromethoxy)phenyl]-1-[[rac-(2R)-1-methylpyrrolidin-2-yl]methyl]pyrazol-4-yl]pyrazolo[1,5-a]pyrimidine-3-carboxamide] | 8.96 | 7.36 | 7.62 | 6.77 | 2.5 |  |  |  |  |
| Cn1cc(NC(=O)c2cnn3cccnc23)c(-c2cc(S(=O)(=O)C3CCCNC3)ccc2OC(F)F)n1 (single isomer, unassigned) [Example 36, N-[3-[2-(difluoromethoxy)-5-(3-piperidylsulfonyl)phenyl]-1-methyl-pyrazol-4-yl]pyrazolo[1,5-a]pyrimidine-3-carboxamide] | 8.74 |  | 7.15 |  | 1.1 | 6.92 |  |  |  |
| CC(O)C(C)S(=O)(=O)c1ccc(OC(F)F)c(-c2nn(C)cc2NC(=O)c2cnn3cccnc23)c1 (single isomer, unassigned) [Example 69, N-[3-[2-(difluoromethoxy)-5-(2-hydroxy-1-methyl-propyl)sulfonyl-phenyl]-1-methyl-pyrazol-4-yl]pyrazolo[1,5-a]pyrimidine-3-carboxamide] |  |  |  |  |  |  | 7.11 | 78.4 |  |
| CC(C)S(=O)(=O)c1ccc(OC(F)F)c(-c2nn(C)cc2NC(=O)c2cnn3cccnc23)c1 [Example 1, N-[3-[2-(difluoromethoxy)-5-isopropylsulfonyl-phenyl]-1-methyl-pyrazol-4-yl]pyrazolo[1,5-a]pyrimidine-3-carboxamide] | 9.25 | 7.51 | 8.20 | 7.92 | 0.25 |  |  |  |  |
| Cn1cc(NC(=O)c2cnn3cccnc23)c(-c2cc(S(=O)(=O)c3cccnc3)ccc2OC(F)F)n1 [Example 42, N-[3-[2-(difluoromethoxy)-5-(3-pyridylsulfonyl)phenyl]-1-methyl-pyrazol-4-yl]pyrazolo[1,5-a]pyrimidine-3-carboxamide] | 9.38 | 7.52 | 8.59 | 7.68 | 0.24 |  |  |  |  |
| CNCCn1cc(S(=O)(=O)c2ccc(OC(F)F)c(-c3nn(C)cc3NC(=O)c3cnn4cccnc34)c2)cn1 [Example 48, N-[3-[2-(difluoromethoxy)-5-[1-[2-(methylamino)ethyl]pyrazol-4-yl]sulfonyl-phenyl]-1-methyl-pyrazol-4-yl]pyrazolo[1,5-a]pyrimidine-3-carboxamide] | 9.28 | 6.89 |  |  | 0.39 |  |  | 91.3 |  |
| CN(C)CCn1cc(NC(=O)c2cnn3cccnc23)c(-c2cc(S(=O)(=O)C3CC3)ccc2OC(F)F)n1 [Example 50, N-[3-[5-cyclopropylsulfonyl-2-(difluoromethoxy)phenyl]-1-[2-(dimethylamino)ethyl]pyrazol-4-yl]pyrazolo[1,5-a]pyrimidine-3-carboxamide] | 8.77 | 7.30 | 7.57 | 6.80 | 1.9 |  |  |  |  |
| C[C@@H](Cn1cc(S(=O)(=O)c2ccc(OC(F)F)c(-c3nn(C)cc3NC(=O)c3cnn4cccnc34)c2)cn1)N(C)C [Example 58, N-[3-[2-(difluoromethoxy)-5-[1-[(2S)-2-(dimethylamino)propyl]pyrazol-4-yl]sulfonyl-phenyl]-1-methyl-pyrazol-4-yl]pyrazolo[1,5-a]pyrimidine-3-carboxamide] | 9.05 | 7.40 | 7.62 | 7.49 | 0.86 |  |  |  |  |
| CN1CC(n2cc(S(=O)(=O)c3ccc(OC(F)F)c(-c4nn(C)cc4NC(=O)c4cnn5cccnc45)c3)cn2)C1 [Example 61, N-[3-[2-(difluoromethoxy)-5-[1-(1-methylazetidin-3-yl)pyrazol-4-yl]sulfonyl-phenyl]-1-methyl-pyrazol-4-yl]pyrazolo[1,5-a]pyrimidine-3-carboxamide] | 9.09 | 7.47 | 6.72 | 6.70 | 0.77 |  |  |  |  |
| Cn1cc(NC(=O)c2cnn3cccnc23)c(-c2cc(SC3COC3)ccc2OC(F)F)n1 [reference compound] |  |  |  |  |  |  |  |  | 97.4 |
| CSc1ccc(OC(F)F)c(-c2nn(CC#N)cc2NC(=O)c2cnn3cccnc23)c1 [reference compound] |  |  |  |  |  |  |  |  | 96.9 |
| Cn1cc(Sc2ccc(OC(F)F)c(-c3nn(C)cc3NC(=O)c3cnn4cccnc34)c2)cn1 [reference compound] |  |  |  |  |  |  |  |  | 97 |
